According to paper PMC3961306, “Comparison of the Cancer Gene Targeting and Biochemical Selectivities of All Targeted Kinase Inhibitors Approved for Clinical Use” (PLoS ONE, 2014):
Read-outs that look alike come from different tables or passages of the source.

Experiments:
Assay in all cases: Kinase profiling in a biochemical assay panel (mobility shift assays and ELISA), %-inhibition at 1 μM; selectivity entropy
[1] = molecular target: T1, panel of more than 300 wild-type and mutant kinases (313 kinase panel) (Homo sapiens, UniProt Q13043)
T1 sequence (Q13043 1-487): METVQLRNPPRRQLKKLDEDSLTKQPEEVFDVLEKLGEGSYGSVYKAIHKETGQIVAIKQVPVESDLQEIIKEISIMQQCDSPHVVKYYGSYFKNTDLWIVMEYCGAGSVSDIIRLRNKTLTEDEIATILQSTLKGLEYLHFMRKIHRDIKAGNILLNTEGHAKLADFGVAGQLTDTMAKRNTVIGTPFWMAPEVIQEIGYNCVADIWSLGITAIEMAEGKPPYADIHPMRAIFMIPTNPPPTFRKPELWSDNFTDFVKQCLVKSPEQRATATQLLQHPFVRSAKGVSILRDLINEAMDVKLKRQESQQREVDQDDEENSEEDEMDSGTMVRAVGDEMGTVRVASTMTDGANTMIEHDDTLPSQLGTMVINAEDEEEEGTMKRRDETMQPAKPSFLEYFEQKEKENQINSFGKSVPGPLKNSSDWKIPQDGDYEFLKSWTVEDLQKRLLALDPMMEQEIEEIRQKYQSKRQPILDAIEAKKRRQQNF

[2] = molecular target: panel of more than 300 wild-type and mutant kinases (313 kinase panel) (Homo sapiens, UniProt Q15119)
[3] = molecular target: panel of more than 300 wild-type and mutant kinases (313 kinase panel) (Homo sapiens, UniProt Q02750)
[4] = molecular target: panel of more than 300 wild-type and mutant kinases (313 kinase panel) (Homo sapiens, UniProt Q02779)
panel of more than 300 wild-type and mutant kinases (313 kinase panel) (Homo sapiens, UniProt Q02779), sequence (Q02779 whole entry, change not shown): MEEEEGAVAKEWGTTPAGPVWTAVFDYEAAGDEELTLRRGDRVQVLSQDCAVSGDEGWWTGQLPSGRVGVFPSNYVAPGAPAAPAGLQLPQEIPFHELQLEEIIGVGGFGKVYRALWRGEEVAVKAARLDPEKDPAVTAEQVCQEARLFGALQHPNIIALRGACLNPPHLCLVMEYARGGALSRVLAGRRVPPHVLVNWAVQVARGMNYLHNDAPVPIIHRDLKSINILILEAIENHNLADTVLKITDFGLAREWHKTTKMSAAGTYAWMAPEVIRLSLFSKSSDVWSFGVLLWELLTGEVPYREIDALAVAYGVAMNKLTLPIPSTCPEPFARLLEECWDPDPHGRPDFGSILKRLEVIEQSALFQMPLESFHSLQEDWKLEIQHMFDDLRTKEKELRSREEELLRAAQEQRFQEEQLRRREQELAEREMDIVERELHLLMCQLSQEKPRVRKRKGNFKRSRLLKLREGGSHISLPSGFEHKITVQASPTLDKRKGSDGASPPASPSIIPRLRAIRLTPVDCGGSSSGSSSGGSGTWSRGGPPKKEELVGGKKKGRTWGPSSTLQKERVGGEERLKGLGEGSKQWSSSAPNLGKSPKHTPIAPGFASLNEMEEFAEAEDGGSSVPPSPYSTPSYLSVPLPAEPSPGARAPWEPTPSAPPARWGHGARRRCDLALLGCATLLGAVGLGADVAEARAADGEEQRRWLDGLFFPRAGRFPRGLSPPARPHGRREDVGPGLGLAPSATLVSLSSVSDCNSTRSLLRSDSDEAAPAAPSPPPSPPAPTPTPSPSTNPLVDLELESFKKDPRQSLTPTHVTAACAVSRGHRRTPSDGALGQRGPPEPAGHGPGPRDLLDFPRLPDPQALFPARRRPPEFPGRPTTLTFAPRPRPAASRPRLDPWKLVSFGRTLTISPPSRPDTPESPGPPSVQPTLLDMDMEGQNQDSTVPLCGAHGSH

[5] = molecular target: panel of more than 300 wild-type and mutant kinases (313 kinase panel) (Homo sapiens, UniProt Q9Y6M4)
panel of more than 300 wild-type and mutant kinases (313 kinase panel) (Homo sapiens, UniProt Q9Y6M4), sequence (Q9Y6M4 whole entry, change not shown): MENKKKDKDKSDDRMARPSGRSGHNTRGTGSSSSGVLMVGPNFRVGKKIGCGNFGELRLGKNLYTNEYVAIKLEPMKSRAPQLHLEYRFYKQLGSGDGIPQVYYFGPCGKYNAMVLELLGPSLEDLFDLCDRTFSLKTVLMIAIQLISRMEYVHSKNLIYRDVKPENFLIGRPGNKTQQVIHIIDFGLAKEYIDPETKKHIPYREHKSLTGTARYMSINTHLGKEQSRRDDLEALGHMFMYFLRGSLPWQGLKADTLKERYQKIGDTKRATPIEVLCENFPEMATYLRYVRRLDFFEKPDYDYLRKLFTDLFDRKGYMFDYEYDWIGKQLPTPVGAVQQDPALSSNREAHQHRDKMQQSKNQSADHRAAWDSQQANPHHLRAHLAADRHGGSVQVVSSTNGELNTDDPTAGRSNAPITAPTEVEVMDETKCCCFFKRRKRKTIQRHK

[6] = molecular target: T2, panel of more than 300 wild-type and mutant kinases (313 kinase panel) (Homo sapiens, UniProt P29322)
T2 sequence (P29322 28-1005): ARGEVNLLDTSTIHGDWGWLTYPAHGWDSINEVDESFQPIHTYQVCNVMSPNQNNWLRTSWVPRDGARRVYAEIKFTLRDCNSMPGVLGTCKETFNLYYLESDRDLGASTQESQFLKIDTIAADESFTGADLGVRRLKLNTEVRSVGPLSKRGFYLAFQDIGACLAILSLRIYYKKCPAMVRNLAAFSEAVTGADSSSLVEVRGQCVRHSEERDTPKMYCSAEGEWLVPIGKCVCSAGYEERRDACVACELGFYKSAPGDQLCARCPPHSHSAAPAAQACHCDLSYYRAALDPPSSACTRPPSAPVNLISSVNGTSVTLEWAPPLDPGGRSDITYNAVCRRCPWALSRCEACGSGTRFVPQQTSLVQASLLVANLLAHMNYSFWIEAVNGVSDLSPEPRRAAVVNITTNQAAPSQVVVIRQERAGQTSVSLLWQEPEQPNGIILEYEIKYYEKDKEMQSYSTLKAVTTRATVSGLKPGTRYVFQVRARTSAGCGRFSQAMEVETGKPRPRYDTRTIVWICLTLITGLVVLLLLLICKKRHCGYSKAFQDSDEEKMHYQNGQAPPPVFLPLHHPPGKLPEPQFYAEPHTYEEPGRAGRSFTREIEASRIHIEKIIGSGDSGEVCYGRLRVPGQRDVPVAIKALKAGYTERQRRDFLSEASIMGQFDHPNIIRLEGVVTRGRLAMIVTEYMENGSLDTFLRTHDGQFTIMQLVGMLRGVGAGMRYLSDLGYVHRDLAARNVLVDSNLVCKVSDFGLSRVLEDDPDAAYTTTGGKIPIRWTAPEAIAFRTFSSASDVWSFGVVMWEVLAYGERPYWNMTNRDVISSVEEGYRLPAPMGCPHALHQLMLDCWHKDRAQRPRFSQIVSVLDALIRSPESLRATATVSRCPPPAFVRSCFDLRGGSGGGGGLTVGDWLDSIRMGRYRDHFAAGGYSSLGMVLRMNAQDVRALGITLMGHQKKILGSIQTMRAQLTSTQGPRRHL

[7] = molecular target: panel of more than 300 wild-type and mutant kinases (313 kinase panel) (Homo sapiens, UniProt P04626)
panel of more than 300 wild-type and mutant kinases (313 kinase panel) (Homo sapiens, UniProt P04626), sequence (P04626 23-1255, change not shown): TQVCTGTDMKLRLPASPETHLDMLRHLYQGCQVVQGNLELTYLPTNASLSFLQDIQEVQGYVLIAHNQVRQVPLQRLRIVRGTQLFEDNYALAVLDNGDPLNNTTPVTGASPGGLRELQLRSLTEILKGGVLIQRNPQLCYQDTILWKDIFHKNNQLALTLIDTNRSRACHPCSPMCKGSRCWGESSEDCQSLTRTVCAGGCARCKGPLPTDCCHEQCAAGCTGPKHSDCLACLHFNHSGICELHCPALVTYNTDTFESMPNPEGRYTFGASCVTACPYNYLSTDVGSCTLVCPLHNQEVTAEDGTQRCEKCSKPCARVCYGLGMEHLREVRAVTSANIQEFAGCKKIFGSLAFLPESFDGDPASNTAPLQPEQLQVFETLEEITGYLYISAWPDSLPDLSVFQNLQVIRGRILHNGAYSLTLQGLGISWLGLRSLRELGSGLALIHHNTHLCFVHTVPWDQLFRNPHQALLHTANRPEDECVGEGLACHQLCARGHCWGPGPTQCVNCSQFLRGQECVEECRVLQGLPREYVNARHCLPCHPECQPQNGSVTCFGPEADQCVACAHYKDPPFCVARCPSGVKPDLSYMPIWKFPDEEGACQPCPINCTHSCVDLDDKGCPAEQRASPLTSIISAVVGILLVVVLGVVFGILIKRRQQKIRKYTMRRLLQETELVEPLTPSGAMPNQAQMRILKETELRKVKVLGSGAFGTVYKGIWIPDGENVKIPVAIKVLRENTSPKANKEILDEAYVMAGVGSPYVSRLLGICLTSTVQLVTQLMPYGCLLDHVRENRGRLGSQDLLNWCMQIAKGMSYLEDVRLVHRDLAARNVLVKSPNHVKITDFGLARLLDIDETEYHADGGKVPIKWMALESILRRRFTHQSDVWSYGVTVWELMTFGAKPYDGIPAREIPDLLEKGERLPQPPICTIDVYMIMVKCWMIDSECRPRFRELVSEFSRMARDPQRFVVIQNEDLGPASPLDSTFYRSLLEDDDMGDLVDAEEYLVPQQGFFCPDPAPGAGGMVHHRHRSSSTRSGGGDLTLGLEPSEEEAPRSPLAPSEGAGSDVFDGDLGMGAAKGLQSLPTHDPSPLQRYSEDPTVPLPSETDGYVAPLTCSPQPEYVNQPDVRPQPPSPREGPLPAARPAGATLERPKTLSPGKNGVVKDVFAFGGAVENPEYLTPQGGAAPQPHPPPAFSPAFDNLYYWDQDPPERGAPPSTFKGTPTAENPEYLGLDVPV

[8] = molecular target: panel of more than 300 wild-type and mutant kinases (313 kinase panel) (Homo sapiens, UniProt P51617)
[9] = molecular target: panel of more than 300 wild-type and mutant kinases (313 kinase panel) (Homo sapiens, UniProt Q02763)
panel of more than 300 wild-type and mutant kinases (313 kinase panel) (Homo sapiens, UniProt Q02763), sequence (Q02763 23-1124, change not shown): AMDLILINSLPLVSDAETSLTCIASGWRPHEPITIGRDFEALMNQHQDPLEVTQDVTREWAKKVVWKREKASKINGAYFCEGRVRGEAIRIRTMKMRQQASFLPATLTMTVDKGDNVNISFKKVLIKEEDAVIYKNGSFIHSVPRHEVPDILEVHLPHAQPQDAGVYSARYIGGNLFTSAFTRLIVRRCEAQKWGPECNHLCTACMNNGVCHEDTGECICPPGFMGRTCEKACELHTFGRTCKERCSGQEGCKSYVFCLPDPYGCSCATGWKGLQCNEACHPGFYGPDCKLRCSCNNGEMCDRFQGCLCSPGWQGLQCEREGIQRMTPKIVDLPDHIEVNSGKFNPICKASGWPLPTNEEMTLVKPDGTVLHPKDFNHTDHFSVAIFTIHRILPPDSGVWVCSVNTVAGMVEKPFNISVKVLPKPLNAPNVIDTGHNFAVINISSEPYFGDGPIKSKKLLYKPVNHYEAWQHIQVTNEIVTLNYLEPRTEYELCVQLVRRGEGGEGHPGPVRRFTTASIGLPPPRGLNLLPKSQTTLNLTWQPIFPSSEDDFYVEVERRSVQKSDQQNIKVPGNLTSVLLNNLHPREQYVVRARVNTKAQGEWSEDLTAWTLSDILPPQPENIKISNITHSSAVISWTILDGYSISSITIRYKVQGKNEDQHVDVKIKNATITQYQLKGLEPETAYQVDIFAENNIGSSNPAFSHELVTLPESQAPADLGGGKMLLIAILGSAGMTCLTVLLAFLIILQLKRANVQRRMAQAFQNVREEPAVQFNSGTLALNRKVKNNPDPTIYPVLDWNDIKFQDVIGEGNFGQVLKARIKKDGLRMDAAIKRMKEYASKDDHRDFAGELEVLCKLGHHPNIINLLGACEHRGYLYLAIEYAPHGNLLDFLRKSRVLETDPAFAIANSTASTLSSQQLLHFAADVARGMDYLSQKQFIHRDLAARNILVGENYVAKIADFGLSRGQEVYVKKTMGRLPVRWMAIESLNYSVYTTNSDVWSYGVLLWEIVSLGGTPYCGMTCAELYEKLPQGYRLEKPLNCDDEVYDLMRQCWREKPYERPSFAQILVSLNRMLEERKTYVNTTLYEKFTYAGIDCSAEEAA

[10] = molecular target: panel of more than 300 wild-type and mutant kinases (313 kinase panel) (Homo sapiens, UniProt P08069)
[11] = kinase MAP2K1, compound at 1 μM

| Compound | %-inhibition of MST1 ([1]; kinase MST1, 1 μM) [%] | %-inhibition of PDHK2 ([2]; kinase PDHK2, 1 μM) [%] | %-inhibition of MAP2K1 [3, 11] [%] | %-inhibition of MLK2 ([4]; kinase MLK2, 1 μM) [%] | %-inhibition, CK1γ3 ([5]; kinase CK1γ3, 1 μM compound) [%] | %-inhibition of EPHA8 ([6]; kinase EPHA8, compound at 1 μM) [%] | %-inhibition of HER2 ([7]; kinase HER2, compound at 1 μM) [%] | %-inhibition of IRAK1 ([8]; kinase IRAK1, compound at 1 μM) [%] | %-inhibition of TIE2 ([9]; kinase TIE2, 1 μM) [%] | %-inhibition of IGF1R ([10]; kinase IGF1R, compound at 1 μM) [%] | %-inhibition of MST1 ([1]; 1 µM) [%] | %-inhibition of PDHK2 ([2]; 1 µM) [%] | %-inhibition of IRAK1 ([8]; 1 µM) [%] | %-inhibition of MAP2K1 ([3]; 1 µM) [%] | %-inhibition of MLK2 ([4]; 1 µM) [%] | %-inhibition of TIE2 ([9]; 1 µM) [%] | %-inhibition, CK1γ3 ([5]; 1 µM) [%] | %-inhibition of EPHA8 ([6]; 1 µM) [%] | %-inhibition of IGF1R [10] [%] | %-inhibition of HER2 ([7]; 1 µM) [%] |
| --- | --- | --- | --- | --- | --- | --- | --- | --- | --- | --- | --- | --- | --- | --- | --- | --- | --- | --- | --- | --- |
| C[C@@H](Oc1cc(-c2cnn(C3CCNCC3)c2)cnc1N)c1c(Cl)ccc(F)c1Cl [crizotinib] | 83 | -3.51 | 0.819 | 4.7 | 4 | 82 | -0.714 | – | – | – | – | – | – | – | – | – | – | – | – | – |
| CC(C)(C)c1nc(-c2cccc(NS(=O)(=O)c3c(F)cccc3F)c2F)c(-c2ccnc(N)n2)s1 [dabrafenib] | – | 0.108 | – | 47 | – | 35 | 50 | -48 | 81 | – | – | – | – | – | – | – | – | – | – | – |
| COc1cc2c(Nc3ccc(Br)cc3F)ncnc2cc1OCC1CCN(C)CC1 [vandetanib] | 3.16 | 0.22 | 10 | 12 | 2.66 | 98 | 67 | 46 | 85 | -1.72 | – | – | – | – | – | – | – | – | – | – |
| O=S(=O)(c1cccc2cnccc12)N1CCCNCC1 [fasudil] | 10 | -0.108 | 5.3 | -10 | -4 | -10 | 0.678 | 3.42 | -10 | -13 | – | – | – | – | – | – | – | – | – | – |
| C#Cc1cccc(Nc2ncnc3cc(OCCOC)c(OCCOC)cc23)c1 [erlotinib] | – | – | – | – | – | – | – | – | – | – | -1.06 | -4 | -1.65 | 26 | -1.75 | 9 | -0.719 | 33 | 7 | – |
| COc1cc2nccc(Oc3ccc(NC(=O)C4(C(=O)Nc5ccc(F)cc5)CC4)cc3)c2cc1OC [cabozantinib] | 6 | -1.54 | 82 | 6.67 | 5 | 98 | 10 | 14 | 90 | 11 | – | – | – | – | – | – | – | – | – | – |
| Cc1ccc(C(=O)Nc2ccc(CN3CCN(C)CC3)c(C(F)(F)F)c2)cc1C#Cc1cnc2cccnn12 [ponatinib] | – | -0.22 | – | 39 | 4.6 | 100 | 88 | 79 | 101 | 17 | – | – | – | – | – | – | – | – | – | – |
| CCCS(=O)(=O)Nc1ccc(F)c(C(=O)c2c[nH]c3ncc(-c4ccc(Cl)cc4)cc23)c1F [vemurafenib] | 51 | 3.73 | 18 | 5 | 2.14 | 7 | 2 | 10 | -2.42 | 10 | – | – | – | – | – | – | – | – | – | – |
| CCN(CC)CCNC(=O)c1c(C)[nH]c(/C=C2\C(=O)Nc3ccc(F)cc32)c1C [sunitinib] | – | – | 89 | – | – | – | – | 90 | – | – | – | – | – | – | – | – | – | – | – | – |
| Cc1cn(-c2cc(NC(=O)c3ccc(C)c(Nc4nccc(-c5cccnc5)n4)c3)cc(C(F)(F)F)c2)cn1 [nilotinib] | – | 0.549 | -8 | -1.7 | – | 98 | – | 8 | 41 | -11 | -21 | – | – | – | – | – | -10 | – | – | 4.25 |
| CS(=O)(=O)CCNCc1ccc(-c2ccc3ncnc(Nc4ccc(OCc5cccc(F)c5)c(Cl)c4)c3c2)o1 [lapatinib] | – | -5 | 21 | 1.78 | – | – | – | 3 | 2.14 | 3.73 | -5.59 | – | – | – | – | – | -0.863 | – | – | 85 |
| Cc1nc(Nc2ncc(C(=O)Nc3c(C)cccc3Cl)s2)cc(N2CCN(CCO)CC2)n1 [dasatinib] | – | – | – | – | – | – | – | 2.75 | – | – | – | – | – | – | – | – | – | – | – | – |
| Cc1ccc(Nc2nccc(N(C)c3ccc4c(C)n(C)nc4c3)n2)cc1S(N)(=O)=O [pazopanib] | 2 | -4.23 | 2.11 | 18 | -2 | 43 | 1.07 | 8 | 26 | – | – | – | – | – | – | – | – | – | – | – |
| CC(=O)Nc1cccc(-n2c(=O)n(C3CC3)c(=O)c3c(Nc4ccc(I)cc4F)n(C)c(=O)c(C)c32)c1 [trametinib] | -3.74 | -0.542 | 99 | 5 | – | -8 | -5.36 | 6 | -7 | -10 | – | – | – | – | – | – | – | – | – | – |
| COc1cc(Nc2c(C#N)cnc3cc(OCCCN4CCN(C)CC4)c(OC)cc23)c(Cl)cc1Cl [bosutinib] | – | -3.29 | – | 58 | 3.3 | 99 | 88 | 12 | 22 | 15 | – | – | – | – | – | – | – | – | – | – |
| CN(C)C/C=C/C(=O)Nc1cc2c(Nc3ccc(F)c(Cl)c3)ncnc2cc1O[C@H]1CCOC1 [afatinib] | – | -2.76 | – | – | – | – | – | – | – | – | – | – | – | – | – | – | – | – | – | – |
